Assay results reported in patent US12371428B2 (Exelixis, Inc., priority 2019, dated 2025).
Read-outs that look alike come from different tables or passages of the source.

Assays:
[1] = molecular target: KDR (phospho-KDR, VEGF165-stimulated HUVEC cells) (Homo sapiens (Human), UniProt P35968); experiment: KDR autophosphorylation ELISA in HUVEC cells (Example G); assay type: cell-based; conditions: cellular activity; KDR autophosphorylation ELISA in HUVEC cells
Method in brief: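 HUVECs were serum-starved 24 h, given compound as an 8-point dilution series (0.3% DMSO final) for 1 h, then stimulated with 100 ng/mL VEGF165 for 5 min. Lysate phospho-KDR was quantified by sandwich ELISA against a phospho-KDR standard, and IC50s came from a 4-parameter logistic fit.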

[2] = molecular target: Human MET (residues 956-1390) (Homo sapiens (Human), UniProt P08581); experiment: Human Met kinase assay, HTRF KinEase (Example D-2); assay type: biochemical; conditions: read-out: c-Met IC50
Method in brief: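 MET kinase domain (956-1390), 0.1 ng/well, in buffer with 5 mM MgCl2, 1 mM DTT and 1 mM MnCl2, phosphorylated a biotinylated peptide at ATP Km for 40 min at RT; 10 concentrations, 3% DMSO final. EDTA-stopped HTRF read after 60 min; IC50 from a 4-parameter logistic fit.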

[3] = molecular target: Mer (phospho-Mer, MERTK-transfected 293A cells) (Homo sapiens (Human), UniProt Q12866); experiment: Mer autophosphorylation ELISA in transient transfected 293A cells (Example H); assay type: cell-based; conditions: cellular activity; Mer autophosphorylation ELISA in transient transfected 293A cells
Method in brief: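 293A cells transiently transfected with human MERTK were treated 1 h in serum-free medium with an 8-point compound dilution (0.3% DMSO final). Lysates were assayed by phospho-Mer sandwich ELISA against a phospho-Mer standard; IC50 came from a 4-parameter logistic fit, normalised to DMSO (100%) and reference-inhibitor (0%) controls.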

[4] = molecular target: Human KDR (residues 790-1356) (Homo sapiens (Human), UniProt P35968); experiment: Human KDR kinase assay, HTRF KinEase (Example B-2); assay type: biochemical
Method in brief: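 Human KDR residues 790-1356 (0.1 ng/well) in buffer with 5 mM MgCl2, 1 mM MnCl2, 1 mM DTT, biotinylated peptide substrate, ATP at Km (4.0 μM), 3% DMSO, 10 compound concentrations; 40 min, room temperature. EDTA stop, streptavidin-XL665/Eu-TK antibody HTRF read 665/620 nm; 4-parameter IC50.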

[5] = protocol of Example D-2 (other compounds)
[6] = protocol of Example B-2 (other compounds)

Human KDR (residues 790-1356), sequence (P35968 790-1356): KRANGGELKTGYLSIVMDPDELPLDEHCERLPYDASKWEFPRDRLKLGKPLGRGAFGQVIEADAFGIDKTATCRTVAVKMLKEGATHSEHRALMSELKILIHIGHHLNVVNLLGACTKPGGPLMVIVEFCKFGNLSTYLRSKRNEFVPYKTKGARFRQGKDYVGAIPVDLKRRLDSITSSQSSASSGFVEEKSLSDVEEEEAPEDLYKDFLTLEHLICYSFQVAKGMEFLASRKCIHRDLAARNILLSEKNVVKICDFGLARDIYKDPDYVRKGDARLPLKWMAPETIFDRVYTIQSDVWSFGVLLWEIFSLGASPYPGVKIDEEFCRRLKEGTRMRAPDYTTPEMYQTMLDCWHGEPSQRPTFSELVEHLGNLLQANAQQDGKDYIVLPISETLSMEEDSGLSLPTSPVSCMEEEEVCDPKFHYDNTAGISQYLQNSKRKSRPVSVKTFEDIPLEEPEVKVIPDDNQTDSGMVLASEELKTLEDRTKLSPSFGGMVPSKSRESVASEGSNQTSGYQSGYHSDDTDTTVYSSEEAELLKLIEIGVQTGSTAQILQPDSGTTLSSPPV
Human MET (residues 956-1390), sequence (P08581 956-1390): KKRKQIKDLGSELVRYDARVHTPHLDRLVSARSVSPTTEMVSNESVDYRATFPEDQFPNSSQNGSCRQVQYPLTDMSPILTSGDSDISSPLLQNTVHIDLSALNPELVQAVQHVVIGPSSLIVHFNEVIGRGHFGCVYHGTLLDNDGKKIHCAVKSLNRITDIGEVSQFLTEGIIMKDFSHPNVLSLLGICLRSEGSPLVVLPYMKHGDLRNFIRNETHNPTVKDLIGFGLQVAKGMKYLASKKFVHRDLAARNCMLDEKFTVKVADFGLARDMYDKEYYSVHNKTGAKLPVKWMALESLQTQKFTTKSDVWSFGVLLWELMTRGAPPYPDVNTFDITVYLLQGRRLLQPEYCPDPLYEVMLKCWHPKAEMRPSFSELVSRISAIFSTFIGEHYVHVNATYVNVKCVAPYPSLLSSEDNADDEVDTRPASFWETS
Mer (phospho-Mer, MERTK-transfected 293A cells), sequence (Q12866 21-999): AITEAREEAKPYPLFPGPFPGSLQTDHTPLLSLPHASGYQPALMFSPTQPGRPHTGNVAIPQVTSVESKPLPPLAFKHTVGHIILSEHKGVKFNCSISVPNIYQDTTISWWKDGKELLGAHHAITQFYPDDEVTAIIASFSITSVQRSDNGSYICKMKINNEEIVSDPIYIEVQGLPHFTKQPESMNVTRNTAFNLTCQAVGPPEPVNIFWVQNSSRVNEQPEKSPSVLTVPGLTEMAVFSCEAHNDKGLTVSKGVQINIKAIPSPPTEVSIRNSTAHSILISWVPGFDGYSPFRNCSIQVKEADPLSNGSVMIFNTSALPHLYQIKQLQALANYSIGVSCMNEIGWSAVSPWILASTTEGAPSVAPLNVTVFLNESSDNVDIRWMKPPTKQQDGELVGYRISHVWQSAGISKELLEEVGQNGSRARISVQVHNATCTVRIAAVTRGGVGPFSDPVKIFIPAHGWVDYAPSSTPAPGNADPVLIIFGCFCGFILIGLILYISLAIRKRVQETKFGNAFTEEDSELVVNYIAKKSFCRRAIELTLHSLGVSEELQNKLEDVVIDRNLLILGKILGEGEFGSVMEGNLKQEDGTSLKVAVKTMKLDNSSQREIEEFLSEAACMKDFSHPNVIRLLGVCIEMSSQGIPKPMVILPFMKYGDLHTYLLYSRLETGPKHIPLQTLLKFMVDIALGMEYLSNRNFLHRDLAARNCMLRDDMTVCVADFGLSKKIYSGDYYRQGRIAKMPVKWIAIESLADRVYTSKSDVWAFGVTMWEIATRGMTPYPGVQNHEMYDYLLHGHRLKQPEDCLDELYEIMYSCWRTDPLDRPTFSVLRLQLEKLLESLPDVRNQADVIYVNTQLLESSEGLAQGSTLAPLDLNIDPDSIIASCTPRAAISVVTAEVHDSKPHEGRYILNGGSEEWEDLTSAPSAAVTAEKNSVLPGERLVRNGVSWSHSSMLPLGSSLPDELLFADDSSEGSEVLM
KDR (phospho-KDR, VEGF165-stimulated HUVEC cells), sequence (P35968 20-1356): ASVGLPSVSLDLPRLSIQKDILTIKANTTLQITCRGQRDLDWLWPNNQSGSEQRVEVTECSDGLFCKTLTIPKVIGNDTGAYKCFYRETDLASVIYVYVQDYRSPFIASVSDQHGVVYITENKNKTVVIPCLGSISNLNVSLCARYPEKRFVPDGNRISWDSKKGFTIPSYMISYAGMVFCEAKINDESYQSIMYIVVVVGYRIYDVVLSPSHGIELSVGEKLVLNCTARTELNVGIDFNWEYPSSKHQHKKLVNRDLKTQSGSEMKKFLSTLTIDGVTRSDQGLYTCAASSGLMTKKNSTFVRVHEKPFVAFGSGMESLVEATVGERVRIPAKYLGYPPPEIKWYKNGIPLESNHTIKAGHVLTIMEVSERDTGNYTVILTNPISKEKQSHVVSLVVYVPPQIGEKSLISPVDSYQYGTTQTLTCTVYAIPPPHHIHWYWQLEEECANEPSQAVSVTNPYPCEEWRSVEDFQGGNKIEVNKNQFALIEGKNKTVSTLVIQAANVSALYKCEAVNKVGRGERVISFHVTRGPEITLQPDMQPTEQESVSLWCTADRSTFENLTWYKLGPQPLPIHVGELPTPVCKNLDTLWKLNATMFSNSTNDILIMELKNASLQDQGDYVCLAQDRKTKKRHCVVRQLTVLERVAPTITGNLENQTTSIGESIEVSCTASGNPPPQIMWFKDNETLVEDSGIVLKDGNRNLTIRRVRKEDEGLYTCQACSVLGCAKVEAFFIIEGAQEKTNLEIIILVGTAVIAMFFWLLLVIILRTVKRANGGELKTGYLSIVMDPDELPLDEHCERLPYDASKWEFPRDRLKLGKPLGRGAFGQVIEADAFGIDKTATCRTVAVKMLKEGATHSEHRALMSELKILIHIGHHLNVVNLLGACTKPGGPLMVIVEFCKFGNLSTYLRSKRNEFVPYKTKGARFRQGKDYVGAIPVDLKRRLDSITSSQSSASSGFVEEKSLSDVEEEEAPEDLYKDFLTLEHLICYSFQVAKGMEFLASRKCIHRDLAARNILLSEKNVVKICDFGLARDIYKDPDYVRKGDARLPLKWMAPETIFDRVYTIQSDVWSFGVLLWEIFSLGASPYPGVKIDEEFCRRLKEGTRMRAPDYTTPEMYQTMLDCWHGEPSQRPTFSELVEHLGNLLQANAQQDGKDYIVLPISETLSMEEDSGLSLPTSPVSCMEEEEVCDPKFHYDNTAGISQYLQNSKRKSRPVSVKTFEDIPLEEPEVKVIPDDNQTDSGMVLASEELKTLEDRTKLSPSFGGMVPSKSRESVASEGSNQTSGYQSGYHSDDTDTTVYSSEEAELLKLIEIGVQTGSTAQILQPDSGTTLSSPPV

SMILES	IC50 [1]	IC50 ([2]; protocol of Example D-2)	IC50 [3]	IC50 ([4]; protocol of Example B-2)	IC50 [2, 5]	IC50 [4, 6]
COCCOc1cnc2c(Oc3ccc(NC(=O)c4c(C)nc(C)c(-c5ccc(F)cc5)c4O)cc3F)ccnc2c1 [Compound 555, N-[3-Fluoro-4-[[7-(2-methoxyethoxy)-1,5-naphthyridin-4-yl]oxy]phenyl]-5-(4-fluorophenyl)-4-hydroxy-2,6-dimethylpyridine-3-carboxamide]	< 100 nM	< 100 nM	< 100 nM	< 100 nM		
COc1cc2nccc(Oc3ccc(NC(=O)c4c(C)c(C)nn(-c5ccc(F)cc5)c4=O)cc3F)c2nc1OC [Compound 524, N-[4-[(6,7-dimethoxy-1,5-naphthyridin-4-yl)oxy]-3-fluorophenyl]-2-(4-fluorophenyl)-5,6-dimethyl-3-oxopyridazine-4-carboxamide]	100 to 300 nM	100 to 300 nM	< 100 nM	100 to 300 nM		
COc1cc2nccc(Oc3cc(F)c(NC(=O)c4cnc(C)c(-c5ccc(F)cc5)c4O)cc3F)c2nc1C [Compound 542, N-[2,5-difluoro-4-[(7-methoxy-6-methyl-1,5-naphthyridin-4-yl)oxy]phenyl]-5-(4-fluorophenyl)-4-hydroxy-6-methylpyridine-3-carboxamide]	< 100 nM	< 100 nM	< 100 nM	100 to 300 nM		
COc1cc2nccc(Oc3ccc(NC(=O)c4c(C)ncc(-c5ccc(F)cc5C)c4O)cc3F)c2nc1OC [Compound 479, N-[4-[(6,7-dimethoxy-1,5-naphthyridin-4-yl)oxy]-3-fluorophenyl]-5-(4-fluoro-2-methylphenyl)-4-hydroxy-2-methylpyridine-3-carboxamide]	< 100 nM	< 100 nM	< 100 nM	< 100 nM		
COc1cc2nccc(Oc3ccc(NC(=O)c4cnc(C)c(-c5ccc(F)cc5)c4O)cc3F)c2nc1C [Compound 541, N-[3-fluoro-4-[(7-methoxy-6-methyl-1,5-naphthyridin-4-yl)oxy]phenyl]-5-(4-fluorophenyl)-4-hydroxy-6-methylpyridine-3-carboxamide]	< 100 nM	< 100 nM	< 100 nM	< 100 nM		
COc1ccc2nccc(Oc3ccc(NC(=O)c4c(C)ncc(-c5ccc(F)cc5C)c4O)cc3F)c2n1 [Compound 480, N-[3-fluoro-4-[(6-methoxy-1,5-naphthyridin-4-yl)oxy]phenyl]-5-(4-fluoro-2-methylphenyl)-4-hydroxy-2-methylpyridine-3-carboxamide]	< 100 nM	100 to 300 nM	< 100 nM	100 to 300 nM		
CNc1nccc2c(Oc3ccc(NC(=O)c4cnc(C)n(-c5ccc(F)cc5)c4=O)cc3)ccnc12 [Compound 543, 1-(4-fluorophenyl)-2-methyl-N-[4-[[8-(methylamino)-1,7-naphthyridin-4-yl)oxy]phenyl]-6-oxopyrimidine-5-carboxamide]	100 to 300 nM	100 to 300 nM	< 100 nM	> 300 nM		
COc1cc2ncnc(Oc3ccc(NC(=O)c4c5n(cc(-c6ccc(F)cc6)c4=O)CCC5)cc3F)c2cc1OC [Compound 406, N-[4-(6,7-dimethoxyquinazolin-4-yl)oxy-3-fluorophenyl]-6-(4-fluorophenyl)-7-oxo-2,3-dihydro-1H-indolizine-8-carboxamide]	< 100 nM		< 100 nM		< 100 nM	> 300 nM
C=C(C)c1cnc2c(Oc3ccc(NC(=O)c4cnc(C)c(-c5ccc(F)cc5C)c4O)cc3F)ccnc2c1 [Compound 450, 5-(4-fluoro-2-methylphenyl)-N-[3-fluoro-4-[(7-prop-1-en-2-yl-1,5-naphthyridin-4-yl)oxy]phenyl]-4-hydroxy-6-methylpyridine-3-carboxamide]	< 100 nM	< 100 nM	< 100 nM	100 to 300 nM		
COc1cc2nccc(Oc3ccc(NC(=O)c4cn(C)c(C(=O)O)c(-c5ccc(F)cc5)c4=O)cc3F)c2nc1OC [Compound 553, 5-[[4-[(6,7-Dimethoxy-1,5-naphthyridin-4-yl)oxy]-3-fluorophenyl]carbamoyl]-3-(4-fluorophenyl)-1-methyl-4-oxopyridine-2-carboxylic acid]	> 300 nM	< 100 nM	100 to 300 nM	> 300 nM		
C=C(C)c1cnc2c(Oc3ccc(NC(=O)c4c(C)nc(C)c(-c5ccc(F)cc5)c4O)cc3F)ccnc2c1 [Compound 451, 5-(4-fluorophenyl)-N-[3-fluoro-4-[(7-prop-1-en-2-yl-1,5-naphthyridin-4-yl)oxy]phenyl]-4-hydroxy-2,6-dimethylpyridine-3-carboxamide]	< 100 nM	< 100 nM	< 100 nM	< 100 nM		
COc1nc2c(Oc3ccc(NC(=O)c4cnc(C)c(-c5ccc(F)cc5C)c4O)cc3F)ccnc2cc1C [Compound 460, N-[3-fluoro-4-[(6-methoxy-7-methyl-1,5-naphthyridin-4-yl)oxy]phenyl]-5-(4-fluoro-2-methylphenyl)-4-hydroxy-6-methylpyridine-3-carboxamide]	< 100 nM	100 to 300 nM	< 100 nM	> 300 nM		
COc1cc2nccc(Oc3ccc(NC(=O)c4c(C)nc(C)c(-c5ccc(F)cc5)c4O)cc3F)c2nc1OC [Compound 154, N-[4-[(6,7-Dimethoxy-1,5-naphthyridin-4-yl)oxy]-3-fluorophenyl]-5-(4-fluorophenyl)-4-hydroxy-2,6-dimethylpyridine-3-carboxamide]	< 100 nM		< 100 nM		< 100 nM	< 100 nM
COc1cc2nccc(Oc3ccc(NC(=O)c4cnc(COC(C)=O)c(-c5ccc(F)cc5)c4O)cc3F)c2nc1OC [Compound 544, [5-[[4-[(6,7-dimethoxy-1,5-naphthyridin-4-yl)oxy]-3-fluorophenyl]carbamoyl]-3-(4-fluorophenyl)-4-hydroxypyridin-2-yl]methyl acetate]	< 100 nM	< 100 nM	< 100 nM	< 100 nM		
COc1cc2nccc(Oc3ccc(NC(=O)c4cc(C)nn(-c5ccc(F)cc5)c4=O)cc3)c2nc1OC [Compound 520, N-[4-[(6,7-dimethoxy-1,5-naphthyridin-4-yl)oxy]phenyl]-2-(4-fluorophenyl)-6-methyl-3-oxopyridazine-4-carboxamide]	< 100 nM	< 100 nM	< 100 nM	> 300 nM		
COc1ccc2nccc(Oc3ccc(NC(=O)c4cn(C)c(CF)c(-c5ccc(F)cc5)c4=O)cc3F)c2n1 [Compound 561, N-[3-Fluoro-4-[(6-methoxy-1,5-naphthyridin-4-yl)oxy]phenyl]-6-(fluoromethyl)-5-(4-fluorophenyl)-1-methyl-4-oxopyridine-3-carboxamide]	> 300 nM	100 to 300 nM	< 100 nM	> 300 nM		
COc1cc2nccc(Oc3ccc(NC(=O)c4nn(C)c(C)c(-c5ccc(F)cc5C)c4=O)cc3F)c2nc1OC [Compound 512, N-[4-[(6,7-dimethoxy-1,5-naphthyridin-4-yl)oxy]-3-fluorophenyl]-5-(4-fluoro-2-methylphenyl)-1,6-dimethyl-4-oxopyridazine-3-carboxamide]	< 100 nM	< 100 nM	< 100 nM	< 100 nM		
CCn1cc(C(=O)Nc2ccc(Oc3ccnc4cc(OC)c(OC)nc34)cc2)c(=O)c(-c2ccc(F)cc2)c1CF [Compound 558, N-[4-[(6,7-Dimethoxy-1,5-naphthyridin-4-yl)oxy]phenyl]-1-ethyl-6-(fluoromethyl)-5-(4-fluorophenyl)-4-oxopyridine-3-carboxamide]	100 to 300 nM	100 to 300 nM	< 100 nM	> 300 nM		
COc1cc2nccc(Oc3ccc(NC(=O)c4ccc(C)n(-c5ccc(F)cc5)c4=O)cc3F)c2nc1OC [Compound 254, N-[4-[(6,7-Dimethoxy-1,5-naphthyridin-4-yl)oxy]-3-fluorophenyl]-1-(4-fluorophenyl)-6-methyl-2-oxopyridine-3-carboxamide]	< 100 nM		< 100 nM		< 100 nM	< 100 nM
CCc1nc(C)c(-c2ccc(F)cc2)c(O)c1C(=O)Nc1ccc(Oc2ccnc3ccc(OC)nc23)cc1 [Compound 509, 2-ethyl-5-(4-fluorophenyl)-4-hydroxy-N-[4-[(6-methoxy-1,5-naphthyridin-4-yl)oxy]phenyl]-6-methylpyridine-3-carboxamide]	< 100 nM	< 100 nM	< 100 nM	< 100 nM		
